Measurements published in patent publication US9399663B2, “Competitive inhibitor of GP120” (priority 2014, dated 2016).
“And” between values parts separate entries of the source, which are not always exact repeats. Identical values can stand only once. Like-named read-outs stand apart in the source and are kept apart here.

Assays:
tubulin dimer = assay: SPR (BIACORE T200) binding to immobilized tubulin dimer; design: species or system Porcine
Method: (§1) Surface plasmon resonance (SPR). BIACORE® T200™ was used to determine the kinetic parameters for the binding of recombinant TUBB3, tubulin dimer, and assembled microtubules (ligands) to the various isoforms of gp120 or related peptides (analytes). Recombinant TUBB3, tubulin dimer, and assembled MTs were covalently attached to different flow cells of a carboxymethyldextran (CM5) sensor chip by amine coupling. The chip surface was activated for 720 sec at 10 μL/min with of 1:1 mixture of 0.1 M N-Hydroxysuccinimide (NHS) and 0.5 M 1-Ethyl-3-(-3-dimethylaminopropyl)-carbodiimide hydrochloride (EDC). […] After ligand capture, the surfaces were deactivated by injecting 1 M ethanolamine for 720 sec at 10 μL/min. HBS-P (10 mM HEPES, pH7.4, 150 mM NaCl, 0.05% P-20) with 2 mM MgCl2 used as the running buffer. Flow cell 1 on each chip was left empty and used for reference surface. […] Kinetic studies were performed by injecting different concentrations of the analytes in triplicate. The chip surface was regenerated by with 10 mM glycine pH 1.5 injected for 30 sec at a flow rate of 100 μL/min. Each sample was injected for 60 sec (contact time) followed by a dissociation time of 300 sec at a flow rate of 100 μL/min. Data was analyzed with BIACORE® T200™ Evaluation Software (version 1) to determine the equilibrium dissociation constant (KD) from a 1:1 binding model. Binding studies with peptides Helix A and Helix B were done in the same way as described above. Kinetic studies were performed by injecting different concentrations (20 μM, 10 μM, 5 μM, 2.5 μM, 1.25 μM and 0.625 μM) of Helix A and Helix B. Competition experiments with Helix A and Helix B were performed by mixing 100 nM gp120 isoforms with 10 μM of each peptide and injecting over the sensorchip surface.
Recombinant TUBB3, tubulin dimer, and assembled MTs from bovine brains were immobilized on a BIACORE® CM5 chip by amine coupling. Different concentrations of gp120s (from 3.13 to 100 nM) were injected over the surface in triplicates in each experiment. The kinetics of interaction was analyzed using a BIACORE® T200™ instrument. […]

recombinant TUBB3 = biological target: T1, recombinant TUBB3 (Homo sapiens, UniProt Q13509); assay: SPR (BIACORE T200) binding to immobilized TUBB3; conditions: for Kd: Ligand: TUBB3
T1 construct: purchased MyBioSource, San Diego, Calif
Method: as §1
Recombinant TUBB3, tubulin dimer, and assembled MTs from bovine brains were immobilized on a BIACORE® CM5 chip by amine coupling. Different concentrations of gp120s (from 3.13 to 100 nM) were injected over the surface in triplicates in each experiment. The kinetics of interaction was analyzed using a BIACORE® T200™ instrument. BiaEvaluation software was used to calculate binding affinities based on 1:1 binding model.

assembled MTs = assay: SPR (BIACORE T200) binding to immobilized assembled microtubules; design: species or system Porcine
Method: Surface plasmon resonance (SPR). BIACORE® T200™ was used to determine the kinetic parameters for the binding of recombinant TUBB3, tubulin dimer, and assembled microtubules (ligands) to the various isoforms of gp120 or related peptides (analytes). Recombinant TUBB3, tubulin dimer, and assembled MTs were covalently attached to different flow cells of a carboxymethyldextran (CM5) sensor chip by amine coupling. The chip surface was activated for 720 sec at 10 μL/min with of 1:1 mixture of 0.1 M N-Hydroxysuccinimide (NHS) and 0.5 M 1-Ethyl-3-(-3-dimethylaminopropyl)-carbodiimide hydrochloride (EDC). […] After ligand capture, the surfaces were deactivated by injecting 1 M ethanolamine for 720 sec at 10 μL/min. HBS-P (10 mM HEPES, pH7.4, 150 mM NaCl, 0.05% P-20) with 2 mM MgCl2 used as the running buffer. Flow cell 1 on each chip was left empty and used for reference surface. TUBB3 (1040 RU), tubulin dimer (2086 RU), and assembled MTs (990 RU) were captured on the remaining 3 flow cells. Kinetic studies were performed by injecting different concentrations of the analytes in triplicate. The chip surface was regenerated by with 10 mM glycine pH 1.5 injected for 30 sec at a flow rate of 100 μL/min. Each sample was injected for 60 sec (contact time) followed by a dissociation time of 300 sec at a flow rate of 100 μL/min. Data was analyzed with BIACORE® T200™ Evaluation Software (version 1) to determine the equilibrium dissociation constant (KD) from a 1:1 binding model. Binding studies with peptides Helix A and Helix B were done in the same way as described above. Kinetic studies were performed by injecting different concentrations (20 μM, 10 μM, 5 μM, 2.5 μM, 1.25 μM and 0.625 μM) of Helix A and Helix B. Competition experiments with Helix A and Helix B were performed by mixing 100 nM gp120 isoforms with 10 μM of each peptide and injecting over the sensorchip surface.
Recombinant TUBB3, tubulin dimer, and assembled MTs from bovine brains were immobilized on a BIACORE® CM5 chip by amine coupling. […] The kinetics of interaction was analyzed using a BIACORE® T200™ instrument. […]

tubulin β-3 (TUBB3) = biological target: T2, tubulin β-3 (TUBB3) (Rattus norvegicus, UniProt Q4QRB4); assay: LC-MS/MS of gp120 immunocomplex from lysates of gp120-treated neurons; type: binding; conditions: anti-gp120 immunoprecipitation
T2 construct: Neurons exposed to gp120IIIB were lysated in RIPA buffer; endogenous in cells; host or cells: primary cortical neurons from embryonic (E17-18) Sprague Dawley rats
Method: LC-MS/MS analysis identifies tubulin β-3 (TUBB3) as an interactor of gp120IIIB Top panel: Chromatogram of the whole data set of gp120 interactors. In orange is indicated the peak (retention time=46.45 minutes) associated to peptide ^337[…]^350 (SEQ ID NO: 15) of TUBB3. Bottom panel: The fragmentation spectrum of peptide of TUBB3 is shown to identify TUBB3 among gp120IIIB interactors. The series of y sequence coverage is highlighted.
Liquid chomatography-mass spectrometry (LC-MS/MS): Neurons exposed to gp120IIIB were lysated in RIPA buffer with protease and phosphatase inhibitors (THERMO FISHER […]®) at 4° C. and then incubated with mouse anti-gp120 antibody. Gp120 complex of interacting proteins was eluted from immobilized protein A beads, reduced, alkylated and digested with trypsin. The tryptic digests were analyzed by mass spectrometry, using a LTQ ORBITRAP XL™ hybrid FTMS (Fourier transform mass spectrometer) (THERMO FISHER […]®). Peptide separation was performed with solvent A (0.1% HCOOH in H2O) and solvent B (0.1% formic acid in ACN), using the following gradient: from 5% B for 1 minute to 60% B in 70 minutes. Peptides were analyzed using a precursor mass range of 300-5000 Da. MS/MS analyses were used to query a non-redundant protein database (rat.fasta) using the software SEQUEST™. […]

[1] = 100 nM gp120 alone, 60 sec injection

T1 sequence (Q13509 whole entry): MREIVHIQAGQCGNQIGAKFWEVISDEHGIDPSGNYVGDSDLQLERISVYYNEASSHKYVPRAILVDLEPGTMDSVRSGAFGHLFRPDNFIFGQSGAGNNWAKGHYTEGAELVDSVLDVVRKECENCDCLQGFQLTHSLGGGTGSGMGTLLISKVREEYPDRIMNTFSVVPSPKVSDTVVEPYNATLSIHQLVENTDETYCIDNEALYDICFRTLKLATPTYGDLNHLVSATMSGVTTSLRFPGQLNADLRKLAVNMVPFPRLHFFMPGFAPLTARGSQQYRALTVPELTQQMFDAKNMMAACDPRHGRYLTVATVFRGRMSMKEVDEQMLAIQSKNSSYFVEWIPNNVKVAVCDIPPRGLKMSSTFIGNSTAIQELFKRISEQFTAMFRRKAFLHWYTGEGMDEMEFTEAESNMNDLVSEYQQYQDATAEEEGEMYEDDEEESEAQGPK
T2 sequence (P68370 whole entry): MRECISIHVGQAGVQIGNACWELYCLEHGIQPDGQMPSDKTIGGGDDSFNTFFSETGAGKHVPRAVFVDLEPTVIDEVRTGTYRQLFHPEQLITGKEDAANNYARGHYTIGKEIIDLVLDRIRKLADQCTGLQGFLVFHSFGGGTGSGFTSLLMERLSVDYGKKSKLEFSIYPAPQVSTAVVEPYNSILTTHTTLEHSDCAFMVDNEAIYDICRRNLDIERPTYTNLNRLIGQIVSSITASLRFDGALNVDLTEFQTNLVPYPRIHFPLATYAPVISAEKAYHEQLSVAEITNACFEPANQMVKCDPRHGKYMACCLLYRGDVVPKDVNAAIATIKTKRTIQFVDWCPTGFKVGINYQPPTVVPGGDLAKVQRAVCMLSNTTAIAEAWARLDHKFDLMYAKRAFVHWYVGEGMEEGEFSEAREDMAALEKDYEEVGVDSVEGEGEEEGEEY
T2 sequence (Q4QRB4 whole entry): as the sequence (Q13509 whole entry) above, with E441D counted along it

“gp120IIIB: HIV envelope protein gp120, strain IIIB, purchased from Immunodiagnostics” was tested, and the “SPR response (3-1) RU, Fc3: Tubulin Dimer 1900 RU” value (tubulin dimer; [1]) was 21 RU and 14 RU and 18.6 RU, the Kd (tubulin dimer; Ligand: Tubulin Dimer, mean of two independent experiments) was 12.3 nM and the “SPR response (2-1) RU, Fc2: Tubulin β-3 1092 RU” value (recombinant TUBB3; [1]) was 35 RU and 44 RU. The Kd (recombinant TUBB3; mean of two independent experiments, read-out: Mean KD) was 7.5 nM, the Kd (recombinant TUBB3; single experiment, gp120 3.13 to 100 nM, 1:1 binding model, read-out: KD) was 7.91 nM and 7.05 nM and the “SPR response (4-1) RU, Fc4: Microtubules 970 RU” value (assembled MTs; [1]) was 19 RU and 15 RU and 23.2 RU. For the same substance, the Kd (assembled MTs; Ligand: Assembled MTs, mean of two independent experiments) was 10 nM and the “TUBB3 identified among gp120 interactors (LC-MS/MS)” value (tubulin β-3 (TUBB3)) was “interactor”.
